Literature values, collected in US7608126B1, “Method for horticulture plant rejuvenation” (priority 2006, dated 2009).

## C[C@]12CC[C@H](O)CC1=CC[C@@H]1[C@@H]2CC[C@]2(C)C(=O)CC[C@@H]12 [DHEA, dehydroepiandrosterone]
  solubility in water: not very soluble in water
